How the values were obtained:
recombinant human PAI-1 [1] = target: T1, recombinant human PAI-1 (Homo sapiens, UniProt P05121); assay: PAI-1 inhibitory activity, Test Method A (tPA fluorogenic substrate, Tris buffer pH8.0, 37 C); type: biochemical; details: for Inhibitory Ratio at 25 μM (%): Test Method A; for IC50: 50% inhibitory concentration of PAI-1 activity, according to the aforementioned method
recombinant human PAI-1 [2] = target: T1, recombinant human PAI-1; assay: Inhibition of complex formation of PAI-1 and tPA (SDS-PAGE); type: biochemical; details: 100 μM concentration
Protocol: To a 2.5 μL solution obtained by diluting a DMSO solution of the test compound at 4-fold concentration of the test concentration with PBS(-), 5 μL of 150 nM recombinant human PAI-1 solution adjusted with a phosphate buffer (pH6.6, 0.05M Sodium Phosphate, 0.1 M NaCl, 1 mM EDTA) was added, and reacted for 5 minutes at 37° C. […] of 600 nM recombinant human one-chain tPA solution adjusted with PBS(-) was added, and further reacted for 5 minutes at 37° C. 10 μL of stop buffer (1.25 mM Tris-HCl pH6.8, 4% SDS, 0.01% BPB, 14% Glycerol) was added, heated for 30 seconds at 100° C., and then the total amount of 20 μL was applied to 10% SDS-PAGE gel electrophoresis. When the test compound was not added as being a control, a band of PAI-1-tPA complex was observed.

T1 sequence (P05121 24-402): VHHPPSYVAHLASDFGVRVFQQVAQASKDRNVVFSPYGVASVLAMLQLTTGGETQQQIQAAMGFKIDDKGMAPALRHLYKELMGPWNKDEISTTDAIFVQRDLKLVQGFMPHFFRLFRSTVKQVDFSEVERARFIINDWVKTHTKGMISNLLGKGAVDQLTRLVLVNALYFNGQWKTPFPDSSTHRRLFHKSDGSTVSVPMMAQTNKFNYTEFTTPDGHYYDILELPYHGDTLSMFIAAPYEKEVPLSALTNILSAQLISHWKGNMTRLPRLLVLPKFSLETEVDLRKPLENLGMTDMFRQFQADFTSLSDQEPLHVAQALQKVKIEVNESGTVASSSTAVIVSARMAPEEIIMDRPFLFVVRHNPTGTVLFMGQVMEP

Row | Structure (SMILES) | Inhibitory Ratio at 25 μM (%) (recombinant human PAI-1 [1]; 25 μM test compound) | IC50 (recombinant human PAI-1 [1]) | inhibition of the complex formation of PAI-1 and tPA observed with SDS-PAGE (recombinant human PAI-1 [2]) | Inhibitory Ratio at 25 μM (%) (recombinant human PAI-1 [1]; test compound 25 μM)
1 | COc1cc(C=C2SC(=O)N(Cc3ccc(Cl)c(Cl)c3)C2=O)cc(C(=O)Nc2ccc(O)c(O)c2)c1O [compound 349, 5-[3-Methoxy-4-hydroxy-5-(3,4-dihydroxyphenylcarbamoyl)-benzylidene]-3-(3,4-dichlorobenzyl)thiazolidine-2,4-dione] | 87% | 570 nM | completely inhibited | –
2 | CCOC1=NN(c2ccc([N+](=O)[O-])cc2)C(=O)C1=Cc1cc(O)c(O)cc1O [compound 156] | – | 300 nM | completely inhibited | 70%
3 | CC1=NN(c2ccc(Cl)c(Cl)c2)C(=O)C1=Cc1cc(O)c(O)cc1O [compound 503] | >99% | – | completely inhibited | –
4 | N=C(N)NCCC[C@H](N)C(=O)O.N=C(N)NCCC[C@H](N)C(=O)O.N=C(N)NCCC[C@H](N)C(=O)O.O=C1SC(=Cc2cc(O)c(O)c(O)c2)C(=O)N1Cc1ccc(Cl)c(Cl)c1 [compound 334, tri(L-(+)-arginine) salt of 5-(3,4,5-trihydroxybenzylidene)-3-(3,4-dichlorobenzyl)thiazolidine-2,4-dione] | >99% | 540 nM | completely inhibited | –
5 | O=C1SC(=Cc2cccc(O)c2O)C(=O)N1Cc1cccc(Cl)c1Cl [compound 18, 5-(2,3-Dihydroxybenzylidene)-3-(2,3-dichlorobenzyl)thiazolidine-2,4-dione] | – | 380 nM | completely inhibited | >99%
6 | O=C1SC(=Cc2cccc(O)c2O)C(=O)N1Cc1ccc(Br)cc1 [compound 36, 5-(2,3-Dihydroxybenzylidene)-3-(4-bromobenzyl)thiazolidine-2,4-dione] | – | 450 nM | completely inhibited | >99%
7 | O=C1C(=Cc2ccc(O)c(O)c2)SC(=S)N1Cc1ccc(Cl)c(Cl)c1 [compound 81, 5-(3,4-Dihydroxybenzylidene)-3-(3,4-dichlorobenzyl)rhodanine] | – | 230 nM | completely inhibited | >99%
8 | CC(C)C1=NN(c2ccc(F)c(Cl)c2)C(=O)C1=Cc1cc(O)c(O)cc1O [compound 515, 4-(2,4,5-Trihydroxybenzylidne)-1-(3-chloro-4-fluorophenyl)-3-isopropyl-2-pyrazolin-5-one] | >99% | 500 nM | completely inhibited | –
9 | O=C(Nc1cccc(OC(F)(F)F)c1)c1cc(C=C2SC(=O)N(Cc3ccc(Cl)c(Cl)c3)C2=O)cc(O)c1O [compound 475] | 53% | 520 nM | completely inhibited | –
10 | O=C(Nc1cc([N+](=O)[O-])ccc1Cl)c1cc(C=C2SC(=O)N(Cc3ccc(Cl)c(Cl)c3)C2=O)ccc1O [compound 473] | 70% | 390 nM | completely inhibited | –
11 | CC(C)C1=NN(c2ccc(Cl)c(Cl)c2)C(=O)C1=Cc1cc(O)c(O)cc1O [compound 141, 4-(2,4,5-trihydroxybenzylidene)-1-(3,4-dichlorophenyl)-3-isopropyl-2-pyrazolin-5-one] | – | 240 nM | completely inhibited | >99%
12 | O=C(Cc1cccc(Oc2ccccc2)c1)Nc1ccc(CN2C(=O)SC(=Cc3cccc(O)c3O)C2=O)cc1 [compound 312, 5-(2,3-Dihydroxybenzylidene)-3-{4-[(3-phenoxyphenyl)acetylamino]-benzyl}thiazolidine-2,4-dione] | >99% | 290 nM | completely inhibited | –
13 | O=C(Cc1cc(C(F)(F)F)cc(C(F)(F)F)c1)Nc1ccc(CN2C(=O)SC(=Cc3cccc(O)c3O)C2=O)cc1 [compound 317, 5-(2,3-Dihydroxybenzylidene)-3-{4-[3,5-Bis(trifluoromethyl)-phenylacetylamino]benzyl}thiazolidine-2,4-dione] | >99% | 420 nM | completely inhibited | –
14 | O=C1C(=Cc2cc(O)c(O)cc2O)C(c2ccccc2)=NN1c1cc(Cl)cc(Cl)c1 [compound 136] | – | 390 nM | completely inhibited | >99%
15 | O=C(Nc1ccc(O)c(O)c1)c1cc(C=C2SC(=O)N(Cc3ccc(Cl)c(Cl)c3)C2=O)ccc1O [compound 352] | 66% | – | completely inhibited | –
16 | O=C(Cc1cccc(Oc2ccccc2)c1)Nc1cccc(CN2C(=O)SC(=Cc3cccc(O)c3O)C2=O)c1 [compound 320, 5-(2,3-Dihydroxybenzylidene)-3-{3-[(3-phenoxyphenyl)acetylamino]-benzyl}thiazolidine-2,4-dione] | >99% | 340 nM | completely inhibited | –
17 | O=C1SC(=Cc2cccc(O)c2O)C(=O)N1Cc1ccc(Cl)cc1Cl [compound 22, 5-(2,3-Dihydroxybenzylidene)-3-(2,4-dichlorobenzyl)thiazolidine-2,4-dione] | – | 440 nM | completely inhibited | >99%
18 | CC(C)C1=NN(c2cc(Cl)cc(Cl)c2)C(=O)C1=Cc1cc(O)c(O)cc1O [compound 504] | 89% | 290 nM | completely inhibited | –
19 | Cc1cc(C=C2SC(=O)N(Cc3ccc(Cl)c(Cl)c3)C2=O)cc(C(=O)Nc2ccc(O)c(O)c2)c1O [compound 401, 5-[3-Methyl-4-hydroxy-5-(3,4-dihydroxyphenylcarbamoyl)-benzylidene]-3-(3,4-dichlorobenzyl)thiazolidine-2,4-dione] | 96% | – | completely inhibited | –
20 | O=C1SC(=Cc2cc(O)c(O)c([N+](=O)[O-])c2)C(=O)N1Cc1ccc(Cl)c(Cl)c1 [compound 347] | >99% | 450 nM | completely inhibited | –
21 | O=C1SC(=Cc2cccc(O)c2O)C(=O)N1Cc1ccc(C(F)(F)F)cc1 [compound 43, 5-(2,3-Dihydroxybenzylidene)-3-[4-(trifluoromethyl)benzyl]thiazolidine-2,4-dione] | – | 360 nM | completely inhibited | >99%
22 | O=C(Nc1cccc(O)c1O)c1cc(C=C2SC(=O)N(Cc3ccc(Cl)c(Cl)c3)C2=O)ccc1O [compound 436] | >99% | 210 nM | completely inhibited | –
23 | O=C(Nc1ccc(O)c(O)c1)c1cc(C=C2SC(=O)N(Cc3ccc(C(F)(F)F)cc3)C2=O)ccc1O [compound 402] | 92% | – | completely inhibited | –

Reference: US20070276011A1, “Plasminogen Activator Inhibitor-1 Inhibitor” (priority 2003, published 2007)
